The values that follow are results of earlier work, collected in paper PMC5959268 (Journal of medicinal chemistry, 2016).

As a reminder, the Kd is the constant that tells how readily two partners part at equilibrium.

For data set [1], the system named is hair regrowth. As to conditions: aging CRF-overexpressing mice.
Data set [2] deals with CRF-stimulated ACTH release by cultured rat anterior pituitary cells. The note with it: rat pituitary cells in culture and adrenalectomized rats.
The target of data set [3] is CRF-R1. As to conditions: read-out: Kd of tracer at CRF-R1; saturation binding of radioligand.

Structures can show the parent of a compound that is named as a salt. *1 amine or outer side, *2 acyl side, *3 side chain or, on linkers, in order; H or OH if unused. Where no end group is shown, it is not given here. [ ]: non-standard residue; d: D form. Tyr(125I) = tyrosine labelled with iodine-125, O=C([C@H](Cc1ccc(O[*:3])c([125I])c1)N[*:1])[*:2]

For `CCCCN(CC)c1nc(C)nc2c1c(C)c(C)n2-c1c(C)cc(C)cc1C` [antalarmin, N-butyl-N-ethyl-2,5,6-trimethyl-7-(2,4,6-trimethylphenyl)-7H-pyrrolol[2,3-d]pyrimidin-4-amine hydrochloride], the hair regrowth entry in data set [1] is given as “spotty results”.

For the compound `Nc1cc(N2CCCCC2)nc(N)[n+]1[O-]` [minoxidil, 2,4-pyrimidinediamine, 6-(1-piperidinyl)-, 3-oxide], the hair regrowth result in data set [1] is on record as “spotty results”.

In the case of [D-Phe^12,Nle^21,38]-h/rCRF(12–41), the “potency relative to α-helical-CRF(9–41) at inhibiting release of ACTH” value in data set [2] was ~ 18 times.

Regarding “[^125ITyr^0-Glu^1]-PD-Svg YEGTSLDLTFDLLRHNLEIAKQEALKKQAAKNRLLLDTI-NH2 ([Tyr(125I)]EGTSLDLTFDLLRHNLEIAKQEALKKQAAKNRLLLDTI-NH2)”, the Kd in data set [3] is 0.42 nM.
